From US11214803B2, “Modulators of YAP1 expression” (Ionis Pharmaceuticals, Inc., priority 2019, dated 2022)
Strand notation (5' to 3'): a small letter for the sugar, then the base; units joined by * are phosphorothioate-linked, units joined directly phosphodiester-linked; [ ] holds rarer units or linkages, { } end groups; capitals alone tell only the bases. k = constrained ethyl (cEt); [5mC] = 5-methylcytosine; d = 2'-deoxy (DNA)

Test system: Yap1 mRNA
Assay: Antisense inhibition of human Yap1 in A-431 cells by cEt gapmers, single dose (Example 2, RTS4814)
Type: cell-based
In short: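 A-431 cells (5,000/well) received 2,000 nM oligonucleotide by free uptake for about 48 h. Yap1 mRNA was then quantified by RT-qPCR with primer probe set RTS4814, normalized to RIBOGREEN total RNA, and reported as % of untreated control; asterisked values mark oligos inside the amplicon.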

[1] = A-431 cells, 5,000 cells per well, free uptake, 2,000 nM modified oligonucleotide, approx. 48 hours, RTS4814, normalized to RIBOGREEN, Table 4, asterisk (*) = targets amplicon region of primer probe set
[2] = Table 32, Yap1 mRNA, percent of untreated control, 3-10-3 cEt gapmers targeting SEQ ID NO.: 1, and 2
[3] = Table 33, Yap1 mRNA, percent of untreated control, 3-10-3 cEt gapmers targeting SEQ ID NO.: 1, and 2
[4] = Table 22, Yap1 mRNA as percent of untreated control, 3-10-3 cEt gapmers, single dose
[5] = Table 21, Yap1 mRNA, percent of untreated control, 3-10-3 cEt gapmers targeting SEQ ID NO.: 1 and 2
[6] = Table 6, A-431 cells, 5,000 cells per well, free uptake, 2,000 nM modified oligonucleotide, approx. 48 hours, RTS4814, normalized to RIBOGREEN, Yap1 mRNA relative to untreated control cells
[7] = Table 25, Yap1 mRNA as percent of untreated control, 3-10-3 cEt gapmers targeting SEQ ID NO.: 1, and 2
[8] = Table 18, A-431 cells, 5,000 cells per well, free uptake, 2,000 nM modified oligonucleotide, approx. 48 hours, RTS4814, normalized to RIBOGREEN, Yap1 mRNA as percent of untreated control
[9] = Table 23, Yap1 mRNA as percent of untreated control, 3-10-3 cEt gapmers, single dose
[10] = Table 20, Yap1 mRNA, percent of untreated control, 3-10-3 cEt gapmers targeting SEQ ID NO.: 1 and 2
[11] = Table 5, A-431 cells, 5,000 cells per well, free uptake, 2,000 nM modified oligonucleotide, approx. 48 hours, RTS4814, normalized to RIBOGREEN, Yap1 mRNA relative to untreated control cells
[12] = Yap1 mRNA as percent of untreated control, A-431 cells, 3-10-3 cEt gapmers targeting SEQ ID NO.: 1, and 2, Table 31
[13] = Table 19, A-431 cells, 5,000 cells per well, free uptake, 2,000 nM modified oligonucleotide, approx. 48 hours, RTS4814, normalized to RIBOGREEN, Yap1 mRNA as percent of untreated control

716451 (k[5mC]*k[5mC]*k[5mC]*dA*dA*dG*d[5mC]*dT*dA*d[5mC]*dA*dA*d[5mC]*kT*kA*kT; antisense) [Compound 716451]
YAP1 (% UTC) [1]: 67 % UTC

1074770 (kA*kT*k[5mC]*dT*dT*dA*dT*d[5mC]*d[5mC]*d[5mC]*dA*dA*dT*kG*k[5mC]*kT; antisense) [compound 1074770]
YAP1 (% UTC) [2]: 15 % UTC

1074515 (kT*kA*kA*d[5mC]*dT*dG*dG*dA*dA*dA*dG*d[5mC]*dA*kG*kG*kG; antisense) [compound 1074515]
YAP1 (% UTC) [3]: 9 % UTC

1074259 (antisense kT*k[5mC]*kA*dT*dA*dT*dT*d[5mC]*dT*dG*d[5mC]*dT*dG*k[5mC]*kA*k[5mC]) [compound 1074259]
YAP1 (% UTC) [3]: 38 % UTC

1075688 (kG*kA*k[5mC]*dA*dA*dT*dA*dA*dA*d[5mC]*dA*dT*d[5mC]*kA*k[5mC]*k[5mC]; antisense) [Compound 1075688]
YAP1 (% UTC) [4]: 12 % UTC

1076007 (k[5mC]*kA*kT*dT*dA*dG*dG*d[5mC]*d[5mC]*dT*dT*dT*dT*kA*k[5mC]*kT; antisense) [Compound 1076007]
YAP1 (% UTC) [5]: 27 % UTC

716501 (kG*k[5mC]*kA*d[5mC]*dT*dG*dA*dA*dA*dG*dT*dA*d[5mC]*kT*kT*kA; antisense) [Compound 716501]
YAP1 (% UTC) [6]: 32 % UTC

716555 (kT*kA*k[5mC]*dT*dT*dT*dT*dT*d[5mC]*dA*dA*dG*dA*kT*kA*k[5mC]; antisense) [Compound 716555]
YAP1 (% UTC) [6]: 99 % UTC

1075403 (antisense k[5mC]*kT*kT*dA*dA*dT*d[5mC]*dA*dG*dG*dT*dA*d[5mC]*kT*kA*kT) [Compound 1075403]
YAP1 (% UTC) [7]: 18 % UTC

1075396 (kA*kT*kT*dA*dT*d[5mC]*dG*d[5mC]*dA*d[5mC]*dA*dT*dA*k[5mC]*kA*kT; antisense) [Compound 1075396]
YAP1 (% UTC) [8]: 89 % UTC

1075177 (antisense kG*kA*kA*dA*dT*dT*dA*d[5mC]*d[5mC]*d[5mC]*dG*dG*dG*kA*kA*k[5mC]) [Compound 1075177]
YAP1 (% UTC) [9]: 27 % UTC

1074224 (antisense k[5mC]*kA*kG*dA*dG*dA*d[5mC]*dT*dA*d[5mC]*dT*d[5mC]*d[5mC]*kA*kG*kT) [compound 1074224]
YAP1 (% UTC) (Yap1 mRNA as percent of untreated control, A-431 cells, 3-10-3 cEt gapmers targeting SEQ ID NO.: 1, and 2, Table 30): 16 % UTC

1076201 (k[5mC]*kT*kA*dA*dA*dA*dA*dG*dA*d[5mC]*dA*dG*dG*kG*k[5mC]*k[5mC]; antisense) [Compound 1076201]
YAP1 (% UTC) [9]: 99 % UTC

1074216 (antisense kG*kA*kT*dT*dT*dG*dG*dG*d[5mC]*dT*d[5mC]*d[5mC]*dG*kG*k[5mC]*kG) [Compound 1074216]
YAP1 (% UTC) [4]: 58 % UTC

1075762 (kG*kA*kT*dA*dA*dA*dT*dG*dG*dG*dT*dT*dG*kA*kT*kT; antisense) [compound 1075762]
YAP1 (% UTC) [2]: 20 % UTC

1075763 (kA*kT*kT*dT*dA*dG*dG*d[5mC]*dT*dT*dT*dG*dG*kG*kT*kT; antisense) [compound 1075763]
YAP1 (% UTC) [3]: 16 % UTC

1075558 (kA*kT*kA*dT*dT*dA*dA*dG*dG*dT*dG*dG*d[5mC]*kT*kT*kA; antisense) [Compound 1075558]
YAP1 (% UTC) [10]: 51 % UTC

716373 (k[5mC]*kA*kA*d[5mC]*dT*dG*d[5mC]*dA*dG*dA*dG*dA*dA*kG*k[5mC]*kT; antisense) [Compound 716373]
YAP1 (% UTC) [1]: 69 % UTC

716452 (kT*kT*kA*d[5mC]*d[5mC]*dA*dA*dA*dA*d[5mC]*dA*dA*d[5mC]*kT*kA*k[5mC]; antisense) [Compound 716452]
YAP1 (% UTC) [11]: 98 % UTC

1074663 (antisense k[5mC]*kA*kT*dT*d[5mC]*dT*dA*dG*dG*dT*dA*dG*dA*kA*kT*kT) [Compound 1074663]
YAP1 (% UTC) [5]: 79 % UTC

1075910 (kG*kA*kA*dA*dT*dA*dA*dG*dG*dA*dG*dT*dA*kG*kG*kT; antisense) [Compound 1075910]
YAP1 (% UTC) [10]: 93 % UTC

1076427 (k[5mC]*kA*kA*dA*dT*dT*dT*dA*d[5mC]*dT*dG*dA*dT*k[5mC]*kT*k[5mC]; antisense) [Compound 1076427]
YAP1 (% UTC) [7]: 3 % UTC

1075313 (antisense k[5mC]*kT*kT*dA*dA*dT*dT*dG*dA*dA*d[5mC]*dT*d[5mC]*kA*kG*kG) [compound 1075313]
YAP1 (% UTC) [12]: 28 % UTC

1075560 (kG*k[5mC]*kT*dA*dA*dA*dT*dA*dA*dA*dG*dG*dT*kT*kA*k[5mC]; antisense) [Compound 1075560]
YAP1 (% UTC) [4]: 86 % UTC

1076069 (kT*k[5mC]*kT*dA*dA*dA*dA*dT*dG*dA*d[5mC]*d[5mC]*dT*kT*kA*kG; antisense) [Compound 1076069]
YAP1 (% UTC) [13]: 118 % UTC

1075812 (k[5mC]*kA*kT*dT*dA*dA*dG*dA*dT*dT*dT*dT*dA*kA*k[5mC]*k[5mC]; antisense) [Compound 1075812]
YAP1 (% UTC) [8]: 103 % UTC

716437 (k[5mC]*k[5mC]*kA*dG*dT*dA*dA*dA*dT*d[5mC]*dA*dT*dG*kT*kT*kT; antisense) [Compound 716437]
YAP1 (% UTC) [11]: 41 % UTC

1076209 (k[5mC]*kA*kT*dT*dA*dG*d[5mC]*dA*d[5mC]*dA*d[5mC]*d[5mC]*dT*kT*kT*kT; antisense) [compound 1076209]
YAP1 (% UTC) [12]: 12 % UTC

1074897 (antisense kG*kG*k[5mC]*dA*dA*dA*dG*dT*dT*d[5mC]*d[5mC]*dT*dA*kT*kG*k[5mC]) [compound 1074897]
YAP1 (% UTC) [12]: 76 % UTC

1076199 (kT*kA*kT*d[5mC]*dA*dA*dA*dA*dG*dT*d[5mC]*d[5mC]*dA*kT*k[5mC]*k[5mC]; antisense) [Compound 1076199]
YAP1 (% UTC) [5]: 37 % UTC

716511 (antisense kG*kA*kT*d[5mC]*dT*dT*d[5mC]*dT*dG*d[5mC]*dA*d[5mC]*dA*kT*kT*kA) [Compound 716511]
YAP1 (% UTC) [1]: 51 % UTC

716367 (k[5mC]*kA*kT*dG*dG*dG*d[5mC]*dA*d[5mC]*dG*dG*dT*d[5mC]*kT*kG*kG; antisense) [Compound 716367]
YAP1 (% UTC) [1]: 70 % UTC

1074826 (kA*kA*kA*dT*d[5mC]*d[5mC]*dA*d[5mC]*d[5mC]*dT*dG*dA*dG*k[5mC]*kA*k[5mC]; antisense) [Compound 1074826]
YAP1 (% UTC) (Table 24, Yap1 mRNA as percent of untreated control, 3-10-3 cEt gapmers targeting SEQ ID NO.: 1, and 2): 51 % UTC

1076395 (kG*kT*kA*dA*d[5mC]*dT*dA*dA*d[5mC]*d[5mC]*dT*dA*dA*kG*kG*kA; antisense) [Compound 1076395]
YAP1 (% UTC) [7]: 34 % UTC

1074961 (antisense kT*k[5mC]*k[5mC]*dT*d[5mC]*d[5mC]*dT*dT*dA*dA*d[5mC]*d[5mC]*d[5mC]*kG*kG*kG) [compound 1074961]
YAP1 (% UTC) [12]: 93 % UTC

1075717 (k[5mC]*kA*kT*dA*dA*dA*dT*dT*dT*d[5mC]*dA*dG*d[5mC]*k[5mC]*kG*kA; antisense) [Compound 1075717]
YAP1 (% UTC) [13]: 10 % UTC

1075473 (kA*kG*kT*dT*dA*dT*dA*dA*d[5mC]*dT*dG*dT*dA*k[5mC]*kT*kA; antisense) [compound 1075473]
YAP1 (% UTC) [12]: 89 % UTC
